# Measured values from US12161722B2, “Bifunctional heterocyclic compound having BTK degradation function via ubiquitin proteasome pathway, and use thereof” (KOREA RESEARCH INSTITUTE OF CHEMICAL TECHNOLOGY, priority 2021, dated 2024).
# Assays:
# C481S BTK protein = molecular target: T1, C481S BTK protein (Homo sapiens, UniProt Q06187, C481S); test: BTK protein degradation assay (Western blotting), C481S BTK; assay type: cell-based; conditions: concentration range accounting for 50% degradation of C481S BTK protein, 293T BTK MUT (C481S) cells
# T1 construct: expressed in transfected cells; host or cells: 293T BTK MUT (C481S) cells
# T1 sequence (Q06187 whole entry C481S): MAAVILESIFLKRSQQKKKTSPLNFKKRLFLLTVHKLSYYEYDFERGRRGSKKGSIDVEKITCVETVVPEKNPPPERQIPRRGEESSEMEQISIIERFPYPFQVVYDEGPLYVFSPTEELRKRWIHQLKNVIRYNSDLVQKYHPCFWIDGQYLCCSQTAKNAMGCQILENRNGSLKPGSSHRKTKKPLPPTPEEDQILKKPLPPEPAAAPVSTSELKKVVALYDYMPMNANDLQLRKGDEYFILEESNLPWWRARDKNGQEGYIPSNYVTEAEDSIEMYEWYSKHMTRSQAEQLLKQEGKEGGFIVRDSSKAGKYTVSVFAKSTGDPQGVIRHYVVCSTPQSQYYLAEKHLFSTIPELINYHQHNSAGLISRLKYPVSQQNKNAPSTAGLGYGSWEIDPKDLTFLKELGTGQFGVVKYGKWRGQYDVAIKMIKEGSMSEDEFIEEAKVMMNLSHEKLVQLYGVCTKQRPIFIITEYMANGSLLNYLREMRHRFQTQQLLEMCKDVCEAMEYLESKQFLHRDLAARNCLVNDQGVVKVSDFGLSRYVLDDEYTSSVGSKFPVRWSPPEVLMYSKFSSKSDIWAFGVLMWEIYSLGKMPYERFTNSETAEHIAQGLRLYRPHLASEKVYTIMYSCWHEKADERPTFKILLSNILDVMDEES
# Method: TMD-8, RAMOS, or 293T BTK MUT (C481S) cells were treated with the synthesized compounds and measured for intracellular BTK protein levels by Western blotting. The protocol of the experiment using TMD-8 cells is as follows.
# The 12-well plates were treated as follows. A 10 mM stock was 1/10 diluted in series with DMSO ([…]) to form final concentrations of 10, 1, 0.1, 0.01, 0.001, and 0.0001 mM. The compounds with such concentrations were applied to cells, followed by harvesting the cells 24 hours later. For a negative control, a 1/10 dilution of DMSO in the medium (3 mL DMSO+27 mL medium) was used.
# The 1-mL cell culture in each well was passed many times through a pipette and then transferred into a 1.5-mL microtube before centrifugation (500 g, 5 min, 4° C.). The supernatant was discarded and the cell pellet was washed with PBS. After centrifugation (500 g, 5 min, 4° C.) again, the supernatant was discarded and the cell pellet was taken.
# A lysis buffer was prepared as follows. RIPA buffer (Biosesang, RC2038-050-00)+0.5 mM PMSF (SIGMA, P7626)+1×Protease/Phosphatase Inhibitor (Cell signaling, 5872S) was added in an amount […] per well and left for 30 minutes on ice (vortexing at 0 and 30 minutes) before sonication (5 cycles of pulse for 10 seconds and rest for 30 seconds, 70% amplification). The supernatant obtained by centrifugation (15000 g, 15 min, 4° C.) was transferred into a new microtube. Cells in each well of 96-well plates were 1/2 diluted with the RIPA buffer and incubated at 37° C. for 30 minutes with […] of a 50:1 mixture of BCA reagents A and B in BCA Protein Assay Kit (iNtRON, 21071). After being cooled for 10 minutes, the 96-well plates were measured for absorbance at 562 nm on the BioTek, SYNERGY H1 microplate reader. Samples were prepared by protein quantification based on the absorbance measurements and then boiled at 70° C. for 10 minutes. The sample buffer used in the case was prepared by mixing a NuPAGE or a Bolt 4× sample buffer (Invitrogen) and its 10× sample reducing agent depending on the gel to be used, and protein dilution was made in a RIPI buffer.
# The samples were loaded in the same amount into a NuPAGE or Bolt Bis-tris 4-12% gradient gel and allowed to run therein (200 V, 35 minutes). The separated proteins were transferred onto a […] NC membrane, using Trans-blot Turbo (BIO-RAD) (1.3 A constant, 25V limit, 15 minutes). The membrane was blocked at room temperature for 1 hour with skim milk or Intercept Blocking Buffer (LI-COR, 927-60001):0.1% TBST=1:1. The membrane was incubated with Anti BTK Rabbit (1:1,000 in 5% skim milk/0.2% TBST, size: 77 kDa, Cell signaling Technology) at 4° C. overnight O/N or at room temperature for 2 hours and with Anti GAPDH Rabbit (1:10,000 in 5% BSA/0.2% TBST, size: 36 kDa, GENETEX) and Anti β-actin mouse (1:10,000 in 5% BSA/0.2% TBST, RT, size: 43 kDa, GENETEX) at room temperature for 1 or 3 hours. Then, the membrane was washed three times with 0.5% TBST for 5 minutes each time before incubation with the second antibody Anti-Rabbit IgG (1:5,000 in 5% Skim milk/TBST, CST), IRDye® 800CW Goat anti-Rabbit IgG Secondary Antibody (1:10,000 in 5% skim/TBST, RT 45 min), or IRDye® 680RD Goat anti-Mouse IgG Secondary Antibody (1:10,000 in 5% skim/TBST, RT 45 min) for 45 minutes at room temperature in a rocker. The membrane was washed five times with 0.5% TBST for 5 minutes in each time, followed by detection with LI-COR, Odyssey. In this regard, the detection proceeded, as it was, for house-keeping genes while using SuperSignal West Pico PLUS Chemiluminescent Substrate or SuperSignal West femto Maximum Sensitivity Substrate for BTK detection.
# According to the concentration ranges of compounds accounting for 50% degradation of WT BTK protein and C481S BTK protein, the activities are expressed as +++(0.0001-0.01 μM), ++(0.01-1 μM), +(1-10 μM), −(>10 μM), and NT (not tested). […]
# WT BTK protein = molecular target: T2, WT BTK protein (Homo sapiens, UniProt Q06187); test: BTK protein degradation assay (Western blotting), WT BTK; assay type: cell-based; conditions: concentration range accounting for 50% degradation of WT BTK protein, TMD-8 or RAMOS cells, 24 hours
# T2 construct: measured for intracellular BTK protein levels by Western blotting; endogenous in cells; host or cells: TMD-8 or RAMOS cells
# T2 sequence (Q06187 whole entry): as the sequence (Q06187 whole entry C481S) above, with S481C counted along it
# Procedure, shortened: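 TMD-8 cells (1×10^6 cells/mL) treated 24 h with compound serial dilutions, then lysed in RIPA. Equal protein loads analysed by Western blot for BTK with GAPDH/β-actin as loading controls; activity binned by concentration giving 50% WT BTK degradation.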
SMILES,DC50 (C481S BTK protein),DC50 (WT BTK protein)
"Cc1cccc(C)c1Nc1nn(C)c2nc(Nc3ccc4c(c3)CN(CCOCCNC(=O)COc3ccc5c(c3)C(=O)N(C3CCC(=O)NC3=O)C5=O)CC4)ncc12 (stereo not drawn) [Compound 25, N-(2-(2-(7-((3-((2,6-Dimethylphenyl)amino)-1-methyl-1H-pyrazolo[3,4-d]pyrimidin-6-yl)amino)-3,4-dihydroisoquinolin-2 (1H)-yl)ethoxy)ethyl)-2-((2-(2,6-dioxopiperidin-3-yl)-1,3-dioxoisoindolin-5-yl)oxy)acetamide]",1000 to 10000 nM,0.1 to 10 nM
"Cc1cccc(C)c1Nc1nn(C)c2nc(Nc3ccc4c(c3)CN(C(=O)C3CCN(c5ccc6nnn(C7CCC(=O)NC7=O)c(=O)c6c5)CC3)CC4)ncc12 (stereo not drawn) [Compound 58, 3-(6-(4-(7-((3-((2,6-Dimethylphenyl)amino)-1-methyl-1H-pyrazolo[3,4-d]pyrimidin-6-yl)amino)-1,2,3,4-tetrahydroisoquinoline-2-carbonyl)piperidin-1-yl)-4-oxobenzo[d][1,2,3]triazin-3 (4H)-yl)piperidin-2,6-one]",10 to 1000 nM,0.1 to 10 nM
"Cc1cccc(C)c1Nc1nn(C)c2nc(Nc3ccc4c(c3)CN(C(=O)COCCOCCNC(=O)C3CCN(c5cccc6c5C(=O)N(C5CCC(=O)NC5=O)C6=O)CC3)CC4)ncc12 (stereo not drawn) [Compound 4, N-(2-(2-(2-(7-((3-((2,6-Dimethylphenyl)amino)-1-methyl-1H-pyrazolo[3,4-d]pyrimidin-6-yl)amino)-3,4-dihydroisoquinolin-2 (1H)-yl)-2-oxoethoxy)ethoxy)ethyl)-1-(2-(2,6-dioxopiperidin-3-yl)-1,3-dioxoisoindolin-4-yl)piperidine-4-carboxamide]",1000 to 10000 nM,10 to 1000 nM
"Cc1cccc(C)c1Nc1nn(C)c2nc(Nc3ccc4c(c3)CN(C(=O)CCOCCOCCOCCOCCNC(=O)COc3cccc5c3C(=O)N(C3CCC(=O)NC3=O)C5=O)CC4)ncc12 (stereo not drawn) [Compound 17, N-(15-(7-((3-((2,6-Dimethylphenyl)amino)-1-methyl-1H-pyrazolo[3,4-d]pyrimidin-6-yl)amino)-3,4-dihydroisoquinolin-2 (1H)-yl)-15-oxo-3,6,9,12-tetraoxapentadecyl)-2-((2-(2,6-dioxopiperidin-3-yl)-1,3-dioxoisoindolin-4-yl)oxy)acetamide]",> 10000 nM,0.1 to 10 nM
Cc1cccc(C)c1Nc1nn(C)c2nc(Nc3ccc4c(c3)CN(C(=O)CCOCCOCCOCCOCCNc3cccc5c3C(=O)N(C3CCC(=O)NC3=O)C5=O)CC4)ncc12 (stereo not drawn) [Compound 14],> 10000 nM,0.1 to 10 nM
"Cc1cccc(C)c1Nc1nn(C)c2nc(Nc3ccc4c(c3)CN(CC3CCN(C(=O)C5CCN(c6ccc7nnn(C8CCC(=O)NC8=O)c(=O)c7c6)CC5)CC3)CC4)ncc12 (stereo not drawn) [Compound 37, 3-(6-(4-(4-((7-((3-((2,6-Dimethylphenyl)amino)-1-methyl-1H-pyrazolo[3,4-d]pyrimidin-6-yl)amino)-3,4-dihydroisoquinolin-2 (1H)-yl)methyl)piperidine-1-carbonyl)piperidin-1-yl)-4-oxobenzo[d][1,2,3]triazin-3 (4H)-yl)piperidin-2,6-one]",0.1 to 10 nM,0.1 to 10 nM
"Cc1cccc(C)c1Nc1nn(C)c2nc(Nc3ccc4c(c3)CN(C3CN(CC5CCN(c6ccc7c(c6)C(=O)N(C6CCC(=O)NC6=O)C7=O)CC5)C3)CC4)ncc12 (stereo not drawn) [Compound 149, 5-(4-((3-(7-((3-((2,6-Dimethylphenyl)amino)-1-methyl-1H-pyrazolo[3,4-d]pyrimidin-6-yl)amino)-3,4-dihydroisoquinolin-2 (1H)-yl)azetidin-1-yl)methyl)piperidin-1-yl)-2-(2,6-dioxopiperidin-3-yl)isoindoline-1,3-dione]",0.1 to 10 nM,0.1 to 10 nM
"Cc1cccc(C)c1Nc1nn(C)c2nc(Nc3ccc4c(c3)CN(C(=O)C3CCN(C(=O)C5CCN(c6ccc7c(=O)n(C8CCC(=O)NC8=O)nnc7c6)CC5)CC3)CC4)ncc12 (stereo not drawn) [Compound 60, 3-(7-(4-(4-(7-((3-((2,6-Dimethylphenyl)amino)-1-methyl-1H-pyrazolo[3,4-d]pyrimidin-6-yl)amino)-1,2,3,4-tetrahydroisoquinoline-2-carbonyl)piperidine-1-carbonyl)piperidin-1-yl)-4-oxobenzo[d][1,2,3]triazin-3 (4H)-yl)piperidin-2,6-one]",10 to 1000 nM,0.1 to 10 nM
"Cc1cccc(C)c1Nc1nn(C)c2nc(Nc3ccc4c(c3)CN(C(=O)COCCOCCOCCOCCNC(=O)COc3ccc5c(c3)C(=O)N(C3CCC(=O)NC3=O)C5=O)CC4)ncc12 (stereo not drawn) [Compound 9, N-(14-(7-((3-((2,6-Dimethylphenyl)amino)-1-methyl-1H-pyrazolo[3,4-d]pyrimidin-6-yl)amino)-3,4-dihydroisoquinolin-2 (1H)-yl)-14-oxo-3,6,9,12-tetraoxatetradecyl)-2-((2-(2,6-dioxopiperidin-3-yl)-1,3-dioxoisoindolin-5-yl)oxy)acetamide]",> 10000 nM,10 to 1000 nM
"Cc1cccc(C)c1Nc1nn(C)c2nc(Nc3ccc4c(c3)CN(C3CCN(c5ccc6c(c5)C(=O)N(C5CCC(=O)NC5=O)C6=O)CC3)CC4)ncc12 (stereo not drawn) [Compound 88, 5-(4-(7-((3-((2,6-dimethylphenyl)amino)-1-methyl-1H-pyrazolo[3,4-d]pyrimidin-6-yl)amino)-3,4-dihydroisoquinolin-2 (1H)-yl)piperidin-1-yl)-2-(2,6-dioxopiperidin-3-yl)isoindoline-1,3-dione]",0.1 to 10 nM,0.1 to 10 nM
"Cc1cccc(C)c1Nc1nn(C)c2nc(Nc3ccc4c(c3)CN(CC3CCN(C(=O)CN5CCN(c6ccc7c(c6)C(=O)N(C6CCC(=O)NC6=O)C7=O)CC5)CC3)CC4)ncc12 (stereo not drawn) [Compound 31, 5-(4-(2-(4-((7-((3-((2,6-Dimethylphenyl)amino)-1-methyl-1H-pyrazolo[3,4-d]pyrimidin-6-yl)amino)-3,4-dihydroisoquinolin-2 (1H)-yl)methyl)piperidin-1-yl)-2-oxoethyl)piperazin-1-yl)-2-(2,6-dioxopiperidin-3-yl)isoindoline-1,3-dione]",10 to 1000 nM,0.1 to 10 nM
"Cc1cccc(C)c1Nc1nn(C)c2nc(Nc3ccc4c(c3)CN(C(=O)COCCOCCNc3ccc5c(c3)C(=O)N(C3CCC(=O)NC3=O)C5=O)CC4)ncc12 (stereo not drawn) [Compound 2, 5-((2-(2-(2-(7-((3-((2,6-Dimethylphenyl)amino)-1-methyl-1H-pyrazolo[3,4-d]pyrimidin-6-yl)amino)-3,4-dihydroisoquinolin-2 (1H)-yl)-2-oxoethoxy)ethoxy)ethyl)amino)-2-(2,6-dioxopiperidin-3-yl)isoindoline-1,3-dione]",10 to 1000 nM,0.1 to 10 nM
